Data published in publication PMC10303363, “Synthesis and Preclinical Evaluation of Novel ^68Ga-Labeled (R)-Pyrrolidin-2-yl-boronic Acid-Based PET Tracers for Fibroblast Activation Protein-Targeted Cancer Imaging” (Pharmaceuticals, 2023).
Several values for one entry are separate records, joined by “and”; a condition that tells them apart may be missing. Equal entries are not always repeated.

Columns and labels:
tumor = tested on: tumor; parameters: method as in doi:10.1158/1538-7445.AM2022-3303; conditions: up to 168 h pi; cited from earlier work
[1] = tested on: HEK-mFAP murine tumor model; parameters: method as in doi:10.1158/1538-7445.AM2022-3303; conditions: single dose; cited from earlier work
[2] = tested on: HEK293T:hFAP tumor-bearing mice; assay: Ex vivo biodistribution study; assay type: in vivo; conditions: 1 h pi
Experimental: (§1) Imaging and biodistribution studies were performed using immunodeficient male NRG (NOD.Cg-Rag1tm1Mom Il2rgtm1Wjl/SzJ) mice following previously reported procedures. All experiments were conducted according to the guidelines established by the Canadian Council on Animal Care and approved by Animal Ethics Committee of the University of British Columbia. The mice were subcutaneously inoculated with 7.5 × 10^6 HEK293T:hFAP cells in the left dorsal flank. When the tumors grew to 6–8 mm in diameter, the mice were used for PET/CT imaging and biodistribution studies.
For the biodistribution studies, the mice were injected with ~1–2 MBq of the ^68Ga-labeled tracer, using the exact procedures as described above. At 1 h pi, the mice were euthanized by CO2 inhalation. Blood was withdrawn by a cardiac puncture, and the organs/tissues of interest were collected, weighed and counted using a Perkin Elmer (Waltham, MA, USA) Wizard2 2480 automatic gamma counter. The uptake values in percent of injected dose per gram of tissues (%ID/g) for the different tracers were calculated.
(§2) For blocking studies, HEK293T:hFAP tumor-bearing mice were co-injected [^68Ga]Ga-SB04028 with an excess of FAPI-04 (0.5 mg/mouse) as a competitor. Imaging and biodistribution studies were performed at 1 h pi similar to the unblocked mice.

[3] = tested on: HEK293T:hFAP tumor xenograft; assay: PET/CT imaging; assay type: in vivo, mice; conditions: HEK293T:hFAP tumor xenograft, 1 h pi, unblocked
Experimental: as §1
The PET/CT imaging experiments were carried out using a Siemens Inveon micro PET/CT scanner (Knoxville, TN, USA). Tumor-bearing mice were injected with ~4 to 6 MBq of ^68Ga-labeled tracer through a lateral caudal tail vein under 2.5% isoflurane in oxygen anesthesia, followed by recovery and free roaming in their cage during the uptake period. A 10 min localization CT scan was acquired using 3 overlapping positions to cover the entire mouse. The CT scan was used for the attenuation and scatter correction, and anatomical localization. A list mode acquisition was then performed for 15 min at 1 h pi with the mouse under isoflurane sedation. The images were reconstructed using 3D OSEM/MAP iterative methods.
as §2

[4] = In vivo stability study (radio-HPLC of plasma and urine); parameters: species or system mice; conditions: 15 min pi
Experimental: In vivo stability studies were performed using healthy (non-tumor-bearing) male NRG mice following previously reported procedures. Briefly, [^68Ga]Ga-SB02055 (6.32 ± 0.16 MBq) and [^68Ga]Ga-SB04028 (9.90 ± 0.26 MBq) were injected via the lateral caudal vein into the mice (n = 3). At 15 min pi, the mice were sedated and euthanized, and urine and blood were collected. The blood was processed to obtain plasma by adding 0.5 mL of acetonitrile to 0.5–0.8 mL of whole blood, then vortexing and centrifuging the resulting mixture on a benchtop mini-centrifuge (Fisherbrand™ Mini-Centrifuge 100–240 V, 50/60 Hz Universal Plug) for 20 min. The supernatant was collected and filtered to give the blood plasma. The plasma and urine samples were analyzed via radio-HPLC by using the same conditions as those used for quality control of these ^68Ga-labeled radioligands.

bone and muscle = tested on: bone and muscle; parameters: method as in PMID 30850501, PMID 32332144, PMID 33721173, PMID 23712432, PMID 34620730; conditions: mice; cited from earlier work
FAP [5] = assay: FAP inhibition reported by Jansen et al. (literature); assay type: biochemical; conditions: from literature IC50 values
FAP [6] = conditions: cited from earlier work
DPPs = conditions: cited from earlier work
PREP = conditions: cited from earlier work
[7] = HEK293T:hFAP tumor-bearing male NRG mice, unblocked, n = 4

## CC(NC(=O)c1ccc(CNC(=O)CN2CCN(CC(=O)[O-])CCN(CC(=O)[O-])CCN(CC(=O)[O-])CC2)cc1)C(=O)N1CCCC1B(O)O.[177Lu+3] (centres unmarked) [[^177Lu]Lu-PNT6555]
tumor
  tumor retention: > 10 %ID/g
[1]
  anti-tumor efficacy: dose-dependent anti-tumor efficacy

## O=C([O-])CN1CCN(CC(=O)[O-])CCN(CC(=O)N2CCN(CCCOc3ccc4nccc(C(=O)NCC(=O)N5CCCC5B(O)O)c4c3)CC2)CCN(CC(=O)[O-])CC1.[68Ga+3] (centres unmarked) [[^68Ga]Ga-SB02055]
[2]; [7]
  Adrenal Glands uptake: 1.17 ± 1.13 %ID/g
  Blood uptake: 3.13 ± 1.25 %ID/g
  Bone uptake: 1.14 ± 0.37 %ID/g
  Brain uptake: 0.05 ± 0.02 %ID/g
  Fat uptake: 0.16 ± 0.05 %ID/g
  Heart uptake: 1.23 ± 0.48 %ID/g
  Kidneys uptake: 1.74 ± 0.95 %ID/g
  Large Intestines uptake: 0.56 ± 0.24 %ID/g
  Liver uptake: 0.94 ± 0.27 %ID/g
  Lungs uptake: 1.20 ± 0.35 %ID/g
  Muscle uptake: 0.63 ± 0.20 %ID/g
  Pancreas uptake: 2.07 ± 0.83 %ID/g
  Small Intestine uptake: 0.80 ± 0.29 %ID/g
  Spleen uptake: 0.85 ± 0.27 %ID/g
  Stomach uptake: 0.53 ± 0.36 %ID/g
  Testes uptake: 0.26 ± 0.10 %ID/g
  Thyroid uptake: 1.49 ± 0.47 %ID/g
  Tumor uptake: 1.08 ± 0.37 %ID/g
  Tumor/Blood uptake ratio: 0.35 ± 0.03
  Tumor/Bone uptake ratio: 0.95 ± 0.06
  Tumor/Kidney uptake ratio: 0.67 ± 0.15
  Tumor/Muscle uptake ratio: 1.72 ± 0.19
[2]; HEK293T:hFAP tumor-bearing mice
  fold lower tumor uptake than [68Ga]Ga-PNT6555: ~ 6 fold
[3]
  tumor on PET/CT image: negligible
[4]; male NRG mice, n = 3
  fraction of tracer remaining intact in plasma: no intact
  fraction of tracer remaining intact in urine: 93.5 ± 0.91% and > 93%
[4]; mouse plasma
  plasma fraction of unidentified highly hydrophilic 68Ga-labeled species: > 99%

## N#C[C@@H]1CC(F)(F)CN1C(=O)CNC(=O)c1ccnc2ccc(OCCCN3CCN(C(=O)CN4CCN(CC(=O)[O-])CCN(CC(=O)[O-])CCN(CC(=O)[O-])CC4)CC3)cc12.[68Ga+3] [[^68Ga]Ga-FAPI-04]
Bone and muscle
  uptake in the bone and muscle: high uptake

## CC(NC(=O)c1ccc(CNC(=O)CN2CCN(CC(=O)[O-])CCN(CC(=O)[O-])CCN(CC(=O)[O-])CC2)cc1)C(=O)N1CCCC1B(O)O.[225Ac+3] (centres unmarked) [[^225Ac]Ac-PNT6555]
[1]
  anti-tumor efficacy: dose-dependent anti-tumor efficacy

## O=C(NCC(=O)N1CCC[C@H]1B(O)O)c1ccnc2ccccc12 [N-(4-quinolinoyl)-Gly-boroPro]
FAP [5]
  fold higher FAP binding affinity than N-(4-quinolinoyl)-Gly-(2-cyanopyrrolidine): 2.8 fold
FAP [6]
  IC50: 3.7 ± 0.2 nM
DPPs
  selectivity over DPPs: > 10^3
PREP
  selectivity over PREP: ~ 3 fold
